Measured values as given in PMC10349806 (Nature Communications, 2023).
Values joined by “and” are separate entries in the source; they are usually repeats but may differ in a detail not shown here. Equal entries are not always repeated.

Molecular target: T1, PfCRT variant E208A (Plasmodium falciparum, UniProt Q9N623, A220S/E208A/I356T/K76T/M74I/N326S/N75E/Q271E/R371I)
T1 sequence (Q9N623 1-424 M74I/N75E/K76T/E208A/A220S/Q271E/N326S/I356T/R371I): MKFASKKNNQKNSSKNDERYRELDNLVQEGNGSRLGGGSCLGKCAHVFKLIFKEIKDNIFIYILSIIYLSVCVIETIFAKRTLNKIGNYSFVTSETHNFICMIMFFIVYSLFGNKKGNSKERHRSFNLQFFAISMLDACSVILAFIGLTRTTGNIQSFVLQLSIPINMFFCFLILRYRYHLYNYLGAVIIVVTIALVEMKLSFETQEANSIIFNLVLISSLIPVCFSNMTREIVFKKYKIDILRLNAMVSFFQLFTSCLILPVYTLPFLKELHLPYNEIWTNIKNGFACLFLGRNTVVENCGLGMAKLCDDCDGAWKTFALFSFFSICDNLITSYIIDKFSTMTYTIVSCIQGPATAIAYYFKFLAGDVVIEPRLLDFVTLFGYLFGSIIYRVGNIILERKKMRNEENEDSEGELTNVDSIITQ
Assay: CQ uptake assay, oocytes expressing E208A
Assay type: cell-based
Procedure: Site-directed mutagenesis of PfCRT^Dd2 was performed as described using the megaprimer method with overlap extension[21],[54]. The primer pairs used are listed in Supplementary Table 6. Please note that a codon-optimized and oocyte-adapted version of PfCRT^Dd2 was used[22] (Supplementary Fig. 16). The resulting DNA fragment was cloned into the SP64T expression vector and verified by sequencing.
Oocytes were obtained as described previously. Briefly, adult (>2 years old) female X. laevis frogs (NASCO) were anesthetized in a cooled solution of ethyl 3-amino benzoate methanesulfonate (0.1%, w/v), followed by a surgical removal of parts of the ovary. The ovary lobes were carefully dissected and small pieces of oocytes were incubated in Ca^2+-free ND96 buffer (96 mM NaCl, 2 mM KCl, 1 mM MgCl2 buffered with 5 mM HEPES/NaOH, pH 7.5) supplemented with collagenase D (0.1%, w/v; Roche), BSA (0.5%, w/v), and 9 mm Na2HPO4 at 18 °C for 14-16 h while gentle shaking. After incubation, the oocytes were carefully washed several times with ND96 buffer (96 mM NaCl, 2 mM KCl, 1.8 mM CaCl2, 1 mM MgCl2 buffered with 5 mM HEPES/NaOH, pH 7.5) supplemented with 100 mg l^−1 gentamycin). Defolliculated and healthy-looking stage V-VI oocytes were manually selected for RNA microinjection. The RNA was generated as following: The codon-optimized sequences of PfCRT variants were cloned into the pSP64T expression vector. After vector linearization using the restriction endonucleases BamHI or SalI (New England Biolabs), transcription was performed using the in vitro SP6 mMessage mMachine Kit (Ambion)[34]. The obtained RNA was kept at −80 °C and diluted with nuclease-free water to a concentration of 0.6 μg μl^−1. Precision-bore glass capillary tubes (3.5-inch glass capillaries; Drummond Scientific Co.) were pulled on a vertical puller (P-87 Flaming/Brown micropipette puller, Sutter Instrument Co.), graduated, and placed on a microinjector (Nanoject II Auto-Nanoliter Injector, Drummond Scientific Co.). 50 nl of nuclease-free water alone (control oocytes) or 50 nl of 0.6 μg μl^−1 RNA were injected under stereomicroscopic control. Injected oocytes were incubated for 46–72 h at 18 °C with twice-daily buffer changes before usage in experiments.
Drug uptake assays were performed as described previously[21],[22],[24],[34]. […] The direction of radio-labeled drug transport is here from the mostly acidic extracellular solution (pH 4.5 or 6.0, as indicated) into the oocyte cytosol (pH ∼ 7.2), which corresponds to the efflux of drug from the acidic digestive vacuole (pH 5.2) into the parasite cytoplasm (pH 7.2). The topology of PfCRT in the oolemma is such that both the N- and C-terminus face the extracellular milieu[3],[22]. In the parasite, the N- and C-terminus face the lumen of the digestive vacuole. […] For determination of the amount of drug uptake for each oocyte, the reaction medium was removed and the oocytes were washed three times with 2 ml of ice-cold ND96 buffer. Each oocyte was individually transferred to a scintillation vial containing 5% sodium dodecyl sulfate (200 μl) for lysis. […] Oocytes that were injected with water instead of RNA were analyzed in parallel, representing the uptake of a drug by diffusion and/or endogenous permeation pathways. […] The specific PfCRT-mediated uptake was determined by subtracting the corresponding background value measured in water-injected oocytes from that of PfCRT-expressing oocytes. […]

CCN(CC)CCCC(C)Nc1ccnc2cc(Cl)ccc12 (centres unmarked) [CQ, chloroquine]
Activity at pH 6.0 (E208A, 50 µM CQ, 1 h, mean ± SEM): 5.43 ± 0.38 pmol h-1 oocyte-1 | R-value (E208A, CQ transport at pH 4.5 / pH 6.0): 0.48 and 0.48 ± 0.05 | E208A transport activity pH 4.5 (pH 4.5, single replicates, Fig 1d left): 3.17 pmol oocyte-1 h-1 and 3.09 pmol oocyte-1 h-1 and 1.68 pmol oocyte-1 h-1 | E208A R-value (pH 4.5 vs pH 6.0, Fig 1d left): 0.52 and 0.55 and 0.37 | E208A transport activity pH 6.0 (pH 6.0, single replicates, Fig 1d left): 6.15 pmol oocyte-1 h-1 and 5.57 pmol oocyte-1 h-1 and 4.57 pmol oocyte-1 h-1
